Common to all, as to format: physicochemical
Series [1] is described as follows: Storage stability: chemical purity by HPLC/UV. Particulars: for Chemical purity ([area-%] at λ=230 nm): 40°C/75% rh. Here is the method:
(§1) Samples were stored in closed and open containers at 25°C/60% rh and at 40°C/75% rh and analyzed after 4, 8 and 12 weeks.
The results of determination of the chemical purity during storage at 40°C/75% rh are summarized. Both salts remained chemically stable when stored under these conditions. Therefore, the analysis of samples, which were stored at 25°C/60% rh, was omitted.

Series [2] can be described thus: Dynamic vapor sorption experiment (hygroscopicity). As for the experimental part:
Vapour sorption experiments were performed in the instrument SPSx-1µ (Projekt Messtechnik, Ulm, Germany) at temperature of 25°C and the humidity cycles as shown below.
A dynamic vapor sorption experiment was performed with Ruxolitinib oxalate. At a constant temperature of 25°C, the substance was exposed to two cycles of varying relative humidity (rh) (40% → 0% →95% (75% r.h. kept constant for 48h) → 0% →40%). Figure 3a presents the relative weight change as a function of time and relative humidity and in […] changes are illustrated as a function of humidity.

Series [3] is described as follows: pH-dependencies of solubility at 37°C. As to conditions: for solubility at 0.5 h / solubility at 1 h / solubility at 24 h / solubility / pH dependency of solubility (in words): 37°C; for solubility at 1 h / solubility at 24 h: thermodynamic from solid; for pH dependency of solubility (in words): pH 4.5 and 6.8. The source says:
The intestinal tract obeys different pH ranges, which vary from pH 1 to 2 of the empty stomach, pH 3-5 for stomach filled with chyme, to pH 5-7.5 of the colon.

Series [4] is described as follows: Storage stability: solid state by XRPD analysis. Here is the method:
The sample was analyzed on a D8 Advance X-ray powder diffractometer (Bruker-AXS, Karlsruhe, Germany). The sample holder was rotated in a plane parallel to its surface at 20 rpm during the measurement. The raw data were analyzed with the program EVA (Bruker-AXS, Germany). The samples were layered onto a silicon specimen holder
as §1
The solid-state stability was investigated by XRPD analysis. The results of evaluation are summarized. Ruxolitinib phosphate and Ruxolitinib oxalate remained unchanged throughout the observation period.

Setting [5] is: 20mM sodium acetate pH 4.5, 0.5 h.
Where [6] appears, read: aqueous buffer, 20mM sodium acetate pH 4.5, 1 h.
Setting [7] is: aqueous buffer, 20mM sodium acetate pH 4.5, 24 h.
[8] abbreviates: aqueous buffer, 50mM KH2PO4 pH 6.8, 1 h.
The mark [9] stands for this setting: aqueous buffer, 50mM KH2PO4 pH 6.8, 24 h.
Where [10] appears, read: pH 1.2, simulated gastric fluid, 0.1M HCl pH1.2, 1 h.
[11] abbreviates: pH 1.2, simulated gastric fluid, 0.1M HCl pH1.2, 24 h.

Each structure is given as a SMILES string. Where a name gives a salt, the structure may show the parent alone.

Usually solubility stands for the dissolved amount per volume that the medium holds. A high value points to a readily soluble substance.

For the compound `N#CC[C@H](C1CCCC1)n1cc(-c2ncnc3[nH]ccc23)cn1` [Ruxolitinib oxalate], the “stable upon storage for” value in series [1] (25°C and 60% relative humidity (RH)) is listed as “at least 12 weeks”; in series [1] (40°C/75% RH) it was “at least 12 weeks”. Also, the “Chemical purity ([area-%] at λ=230 nm)” value in series [1] (closed, 4 weeks) was 100,00% area-%; in series [1] (closed, 8 weeks), 99,95% area-%; in series [1] (closed, 12 weeks), 99,90% area-%; in series [1] (closed, t = 00 (= initial)), 99,89 area-%; in series [1] (open, 4 weeks), 100,00% area-%; in series [1] (open, 8 weeks), 99,91% area-%. Moreover, the “Chemical purity ([area-%] at λ=230 nm)” value in series [1] (open, 12 weeks) is 99,85% area-%; in series [1] (open, t = 00 (= initial)), 99,89 area-%. Further, the “solid state by XRPD analysis after the DVS experiment, compared to prior” value in series [2] is listed as “identical”. For the same compound, the “solubility overall (in words)” value in series [3] is on record as “good solubility”. The solubility at 0.5 h in series [3] (setting [5]) stood at 24.1 mg/mL; in series [3] (50mM KH2PO4 pH 6.8, 0.5 h) it was 21.5 mg/mL; in series [3] (pH 1.2, 0.1M HCl pH1.2, 0.5 h), 57.8 mg/mL. Further, the solubility at 1 h in series [3] (setting [6]) is 27.7 mg/mL; in series [3] (setting [8]), 23.5 mg/mL; in series [3] (setting [10]), 56.3 mg/mL. The solubility at 24 h in series [3] (setting [7]) is 29.9 mg/mL; in series [3] (setting [9]), 23.9 mg/mL; in series [3] (setting [11]) it was 57.4 mg/mL.

For the compound `N#CC[C@H](C1CCCC1)n1cc(-c2ncnc3[nH]ccc23)cn1` [Ruxolitinib phosphate], the “Chemical purity ([area-%] at λ=230 nm)” value was 99,04% area-% in series [1] (closed, 4 weeks); 99,20% area-% in series [1] (closed, 8 weeks); 99,03% area-% in series [1] (closed, 12 weeks); 99,05 area-% in series [1] (closed, t = 00 (= initial)); 99,13% area-% in series [1] (open, 4 weeks); 99,28% area-% in series [1] (open, 8 weeks). Further, the “Chemical purity ([area-%] at λ=230 nm)” value in series [1] (open, 12 weeks) is recorded as 99,10% area-%; in series [1] (open, t = 00 (= initial)), 99,05 area-%. For the same compound, the “Evaluation of XRPD analysis” value is “unchanged” in series [4] (25°C/60% rh, closed, 4 weeks); “unchanged” in series [4] (25°C/60% rh, closed, 8 weeks); “unchanged” in series [4] (25°C/60% rh, closed, 12 weeks); “unchanged” in series [4] (25°C/60% rh, open, 4 weeks); “unchanged” in series [4] (25°C/60% rh, open, 8 weeks); “unchanged” in series [4] (25°C/60% rh, open, 12 weeks). Further, the “Evaluation of XRPD analysis” value in series [4] (40°C/75% rh, closed, 4 weeks) is listed as “unchanged”; in series [4] (40°C/75% rh, closed, 8 weeks) it was “unchanged”; in series [4] (40°C/75% rh, closed, 12 weeks), “unchanged”; in series [4] (40°C/75% rh, open, 4 weeks), “unchanged”; in series [4] (40°C/75% rh, open, 8 weeks) it was “unchanged”; in series [4] (40°C/75% rh, open, 12 weeks), “unchanged”. The solubility at 1 h is 6 mg/mL in series [3] (20mM sodium acetate buffer, aqueous buffer, 20mM sodium acetate pH 4.5, 1 h); 4.7 mg/mL in series [3] (50mM KH2PO4 buffer, aqueous buffer, 50mM KH2PO4 pH 6.8, 1 h); 43.2 mg/mL in series [3] (setting [10]). The solubility at 24 h is 6.8 mg/mL in series [3] (20mM sodium acetate buffer, aqueous buffer, 20mM sodium acetate pH 4.5, 24 h); 5.7 mg/mL in series [3] (50mM KH2PO4 buffer, aqueous buffer, 50mM KH2PO4 pH 6.8, 24 h); 44 mg/mL in series [3] (setting [11]). Also, the “solubility (in words)” value in series [3] (higher pH points than pH 1.2) was “considerably less solubility”; in series [3] (pH 1.2) it was “good solubility”.

On to `N#CC[C@H](C1CCCC1)n1cc(-c2ncnc3[nH]ccc23)cn1` (stereo in doubt) [Ruxolitinib sulfate], for which the solubility stood at 10.4 mg/mL in series [3] (20mM sodium acetate pH 4.5, 0.5 h, 30 min); 10.6 mg/mL in series [3] (20mM sodium acetate pH 4.5, 1 h, 60 min); 9.5 mg/mL in series [3] (20mM sodium acetate pH 4.5, 24 h, 1440 min); 9.6 mg/mL in series [3] (50mM KH2PO4 pH 6.8, 0.5 h, 30 min); 9.8 mg/mL in series [3] (50mM KH2PO4 pH 6.8, 1 h, 60 min); 8.3 mg/mL in series [3] (50mM KH2PO4 pH 6.8, 24 h, 1440 min). The solubility amounted to 18.5 mg/mL in series [3] (0.1M HCl pH1.2, 0.5 h, 30 min); 18.5 mg/mL in series [3] (0.1M HCl pH1.2, 1 h, 60 min); 16.7 mg/mL in series [3] (0.1M HCl pH1.2, 24 h, 1440 min). Also, the “pH dependency of solubility (in words)” value in series [3] is reported as “less pH dependency”.

Regarding `N#CC[C@H](C1CCCC1)n1cc(-c2ncnc3[nH]ccc23)cn1` (stereo in doubt) [Ruxolitinib maleate], the solubility at 0.5 h in series [3] (setting [5]) turned out to be 2.8 mg/mL; in series [3] (50mM KH2PO4 pH 6.8, 0.5 h), 2.9 mg/mL; in series [3] (pH 1.2, 0.1M HCl pH1.2, 0.5 h), 12.5 mg/mL. Also, the solubility at 1 h in series [3] (setting [6]) was 3.2 mg/mL; in series [3] (setting [8]), 2.9 mg/mL; in series [3] (setting [10]) it was 12 mg/mL. Besides, the solubility at 24 h is 2.4 mg/mL in series [3] (setting [7]), 2.5 mg/mL in series [3] (setting [9]) and 12.2 mg/mL in series [3] (setting [11]). For the same compound, the “pH dependency of solubility (in words)” value in series [3] is given as “distinct pH dependency”.

The values above are taken from EP3183252B1, “OXALATE SALT OF RUXOLITINIB” (ratiopharm GmbH, priority 2014, dated 2016).
